Where a name gives a salt, the structure may show the parent alone.
Assays:
[1] = molecular target: MPS1 (Homo sapiens (Human), UniProt P33981); test: Biochemical assay for inhibitors of MPS1 kinase activity (trans-phosphorylation, Dowex); details: 15 μM ATP, P38-tide substrate
Text: Cloning, Expression and Purification of Recombinant MPS1 Full Length Protein.
MPS1 full length (corresponding to residues 2-857 of the full length sequence, see Swiss-Prot accession number P33981) was PCR amplified from the full-length human MPS1 gene present in house as clone pGEX4t_MPS1.
Baculoviruses were generated by cotransfecting Sf9 insect cells with the expression vector and the viral DNA using the BaculoGold® transfection kit (Pharmingen). Viral supernatant was recovered after 5 days and subjected to 3 rounds of amplification to increase viral titer. Recombinant protein was produced by infecting High5 insect cells. After 72 h of infection at 21° C., cells were recovered, pelletted and freezed at −80° C. For purification of recombinant protein, pellet was thawed, resuspended in lysis buffer (PBS, NaCl 150 mM, Glycerol 10%, CHAPS 0.1%, DTT 20 mM, protease and phosphatase inhibitors) and lysed by Gaulin. Lysate was cleared by centrifugation and loaded on a GST affinity column. After extensive wash, recombinant protein was cleaved by a specific protease and eluted by incubation.
To get a fully activated enzyme, the protein was then subjected to auto-phosphorylation in presence of ATP 1 mM at 25° C. for 2 h in kinase buffer (Hepes pH 7.5 50 mM, MgCl2 2.5 mM, MnCl2 1 mM, DTT 1 mM, phosphatase inhibitors); ATP was then removed with a desalting column.
Biochemical Assay for Inhibitors of MPS1 Kinase Activity The inhibitory activity of putative kinase inhibitors and the potency of selected compounds were determined using a trans-phosphorylation assay.
(§1) Specific peptide or protein substrates are trans-phosphorylated by their specific ser-thr or tyr kinase in the presence of ATP traced with ^33P-γ-ATP, and in the presence of their own optimal buffer and cofactors.
(§2) At the end of the phosphorylation reaction, more than 98% unlabeled ATP and radioactive ATP is captured by an excess of the ion exchange dowex resin; the resin then settles down to the bottom of the reaction plate by gravity.
(§3) Supernatant is subsequently withdrawn and transferred into a counting plate, then evaluated by β-counting.
The buffer for MPS1 assay was composed of HEPES 50 mM, at pH 7.5, with 2.5 mM MgCl2, 1 mM MnCl2, 1 mM DTT, 3 μM Na3VO4, 2 mM β-glycerophosphate and 0.2 mg/mL BSA.
The assay was run with a final concentration MPS1 of 5 nM, in the presence of 15 μM ATP and 1.5 nM ^33P-γ-ATP; the substrate was P38-tide, used at 200 μM.
Test compounds are received as a 1 mM solution in 100% DMSO, distributed into 96 or 384 well plates: • a) for percent inhibition studies (HTS), individual dilution plates at 1 mM are diluted at a 3× concentration (30 μM) in ddH2O (3% DMSO=final concentration) using a Beckman NX automated pipetting platform. […]

[2] = molecular target: PIM1 (Homo sapiens (Human), UniProt P11309); test: Biochemical assay for inhibitors of PIM1 kinase activity (trans-phosphorylation, Dowex); details: 200 μM ATP, Aktide substrate
PIM1, sequence (P11309 whole entry): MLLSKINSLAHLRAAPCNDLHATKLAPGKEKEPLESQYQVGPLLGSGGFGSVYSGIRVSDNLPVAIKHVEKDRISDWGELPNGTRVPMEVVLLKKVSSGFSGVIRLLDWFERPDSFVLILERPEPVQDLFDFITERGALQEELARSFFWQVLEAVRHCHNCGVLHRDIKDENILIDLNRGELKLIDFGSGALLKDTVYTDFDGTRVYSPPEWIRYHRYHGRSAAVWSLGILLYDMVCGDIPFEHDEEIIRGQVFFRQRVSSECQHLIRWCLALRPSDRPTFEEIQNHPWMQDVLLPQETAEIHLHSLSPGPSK
Experimental: The short forms and abbreviations used herein have the following meaning: • Ci Curie • DMSO dimethylsulfoxide • KDa kiloDalton • microCi microCurie • mg milligram • microg microgram • ng nanogram • L liter • mL milliliter • μL microliter • M molar • mM millimolar • μM micromolar • nM nanomolar Biochemical Assay for Inhibitors of PIM1 Kinase Activity
The inhibitory activity of putative kinase inhibitors and the potency of selected compounds were determined using a trans-phosphorylation assay.
as §1, §2, §3
The buffer for PIM1 assay was composed of HEPES 50 mM, at pH 7.5, with 10 mM MgCl2, 1 mM DTT, 3 μM NaVO3, and 0.2 mg/mL BSA. […]
Data are analyzed by an internally customized version of the “Assay Explorer” SW package, which provides sigmoidal fitting of the ten-dilution curves for IC50 determination in secondary assay/hit confirmation routines.

[3] = molecular target: PIM2 (Homo sapiens (Human), UniProt Q9P1W9); test: PIM2 kinase inhibition assay: Dowex technique; assay type: biochemical; details: 4 μM ATP, Aktide substrate
PIM2, sequence (Q9P1W9 whole entry): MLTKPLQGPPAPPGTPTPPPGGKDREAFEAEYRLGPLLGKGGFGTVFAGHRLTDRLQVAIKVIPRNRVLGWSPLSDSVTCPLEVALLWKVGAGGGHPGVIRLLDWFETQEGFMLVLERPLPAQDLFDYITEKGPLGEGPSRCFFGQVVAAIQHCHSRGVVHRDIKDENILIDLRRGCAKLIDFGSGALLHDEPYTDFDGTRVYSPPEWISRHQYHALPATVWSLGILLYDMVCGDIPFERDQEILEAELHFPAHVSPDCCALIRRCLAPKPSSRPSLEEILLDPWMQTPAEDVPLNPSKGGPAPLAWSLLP
Experimental: Method for PIM2 Kinase Inhibition Assay: Dowex Technique
The buffer for PIM2 assay was composed of HEPES 50 mM, at pH 7.5, with 1 mM MgCl2, 1 mM DTT, 3 μM Na3VO4, and 0.2 mg/mL BSA.
Full-length human PIM2 was expressed and purified as described in Fedorov O, et al., PNAS 2007 104, 51, 20523-28.
Enzyme concentration=1.5 nM
Aktide substrate (Chemical Abstract Service Registry Number 324029-01-8)=5 μM
See above: same procedure as described for PIM1.

MPS1, sequence (P33981 2-857): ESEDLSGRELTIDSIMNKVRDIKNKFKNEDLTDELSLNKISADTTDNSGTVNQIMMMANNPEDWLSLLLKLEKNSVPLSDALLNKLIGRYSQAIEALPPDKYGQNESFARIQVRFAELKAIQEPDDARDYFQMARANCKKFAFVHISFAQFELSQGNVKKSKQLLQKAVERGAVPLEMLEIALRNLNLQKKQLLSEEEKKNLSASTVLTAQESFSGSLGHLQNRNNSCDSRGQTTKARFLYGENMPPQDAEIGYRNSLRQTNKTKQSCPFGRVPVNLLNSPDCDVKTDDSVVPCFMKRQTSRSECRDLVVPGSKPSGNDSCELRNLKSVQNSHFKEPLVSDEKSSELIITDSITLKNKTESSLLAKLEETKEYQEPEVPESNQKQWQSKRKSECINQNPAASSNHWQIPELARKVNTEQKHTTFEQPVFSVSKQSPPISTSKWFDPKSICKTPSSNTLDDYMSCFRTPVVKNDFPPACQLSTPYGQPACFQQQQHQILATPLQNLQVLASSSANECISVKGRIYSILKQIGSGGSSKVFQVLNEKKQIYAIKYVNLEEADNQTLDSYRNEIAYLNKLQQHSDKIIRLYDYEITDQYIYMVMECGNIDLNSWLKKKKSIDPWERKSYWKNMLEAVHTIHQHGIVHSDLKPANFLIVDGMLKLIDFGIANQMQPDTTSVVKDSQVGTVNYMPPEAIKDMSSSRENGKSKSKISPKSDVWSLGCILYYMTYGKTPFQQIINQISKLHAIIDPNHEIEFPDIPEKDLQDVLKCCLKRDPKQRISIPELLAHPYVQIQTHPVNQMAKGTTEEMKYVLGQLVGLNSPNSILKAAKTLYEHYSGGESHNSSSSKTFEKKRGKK

Row | IC50 [2] | IC50 [3] | SMILES | IC50 [1]
1 | – | – | CCc1cccc(CC)c1NC(=O)c1cc(-c2ccnc(Nc3ccc(N4CCN(C)CC4)cc3OC)n2)n(C)n1 [Compound 3, N-(2,6-diethylphenyl)-5-(2-{[2-methoxy-4-(4-methylpiperazin-1-yl)phenyl]amino}pyrimidin-4-yl)-1-methyl-1H-pyrazole-3-carboxamide] | < 200 nM
2 | – | – | CCc1cccc(CC)c1NC(=O)c1cc(-c2ccnc(Nc3ccc(N4CCN(CCO)CC4)cc3OC)n2)n(C)n1 [Compound 8, N-(2,6-diethylphenyl)-5-[2-({4-[4-(2-hydroxyethyl)piperazin-1-yl]-2-methoxyphenyl}amino)pyrimidin-4-yl]-1-methyl-1H-pyrazole-3-carboxamide] | < 200 nM
3 | – | – | CCc1cccc(CC)c1NC(=O)c1cc(-c2ccnc(Nc3ccc(N4CCN(C)CC4)cc3OC)n2)[nH]n1 [Compound 11, N-(2,6-diethylphenyl)-5-(2-{[2-methoxy-4-(4-methylpiperazin-1-yl)phenyl]amino}pyrimidin-4-yl)-1H-pyrazole-3-carboxamide] | < 200 nM
4 | – | – | CCc1cccc(CC)c1NC(=O)c1cc(-c2ccnc(Nc3ccc(N4CCN(CCO)CC4)cc3OC)n2)[nH]n1 [Compound 13, N-(2,6-diethylphenyl)-5-[2-({4-[4-(2-hydroxyethyl)piperazin-1-yl]-2-methoxyphenyl}amino)pyrimidin-4-yl]-1H-pyrazole-3-carboxamide] | < 200 nM
5 | < 10000 nM | < 10000 nM | CSc1nccc(-c2cc(C(N)=O)nn2C2CCNCC2)n1 [Compound 21, 5-[2-(methylsulfanyl)pyrimidin-4-yl]-1-(piperidin-4-yl)-1H-pyrazole-3-carboxamide hydrochloride] | –
